From US12637478B2, “Compound, preparation method thereof, and antibiotic composition comprising same” (priority 2020, dated 2026)
Values after ≈ are worked out from the molar mass of the structure shown.

Experiments:
[1] = tested on: E. faecalis; assay: MIC by broth microdilution (aerobic pathogens), test strain 7; type: cell-based; conditions: Enterococcus faecalis; test strain 7, E. faecalis; read-out: MIC
Method: (§1) The antibacterial activity of the compounds of Examples 1 to 48 of the present invention against aerobic pathogens were evaluated by measuring the minimum concentration of the antibiotic capable of inhibiting bacterial growth by 90% compared to the growth of the non-drug treated control group. MIC was measured by the broth microdilution method based on CLSI standards [Reference: Clinical and Laboratory Standards Institute Document. (2000) Methods for Dilution Antimicrobial Susceptibility Test for Bacteria that Grow Aerobically-Fifth Edition: M7-A5. CLSI, Villanova, PA].
(§2) All 13 strains such as methicillin susceptible Staphylococcus aureus (MSSA), methicillin resistant Staphylococcus aureus (MRSA), Vancomycin resistant Staphylococcus aureus (VRSA), Staphylococcus epidermidis, methicillin resistant Staphylococcus epidermidis, Enterococcus faecalis, Vancomycin resistant Enterococcus faecalis, Enterococcus faecium, Vancomycin resistant Enterococcus faecium were used.

[2] = tested on: S. aureus^MS; assay: MIC by broth microdilution (aerobic pathogens), test strain 1; type: cell-based; conditions: Staphylococcus aureus; test strain 1, S. aureus^MS; read-out: MIC
Method: as §1, §2

[3] = tested on: C. difficile 9689; assay: MIC by agar dilution against Clostridioides difficile, test strain 13; type: cell-based; conditions: test strain 13, C. difficile 9689, anaerobic, agar dilution, read-out: MIC
[4] = tested on: S. epidermis^MR; assay: MIC by broth microdilution (aerobic pathogens), test strain 6; type: cell-based, Methicillin resistant Staphylococcus epidermidis; conditions: Staphylococcus epidermidis; test strain 6, S. epidermis^MR (methicillin resistant); read-out: MIC
Method: as §1, §2

[5] = tested on: E. faecium^VRE; assay: MIC by broth microdilution (aerobic pathogens), test strain 11; type: cell-based, Vancomycin resistant Enterococcus faecium; conditions: Enterococcus faecium; test strain 11, E. faecium^VRE (vancomycin resistant); read-out: MIC
Method: as §1, §2

[6] = tested on: E. faecium^LinR; assay: MIC by broth microdilution (aerobic pathogens), test strain 12; type: cell-based, Linezolid resistant Enterococcus faecium; conditions: Enterococcus faecium; test strain 12, E. faecium^LinR (linezolid resistant); read-out: MIC
Method: as §1, §2

[7] = tested on: S. aureus^MS; assay: MIC by broth microdilution (aerobic pathogens), test strain 2; type: cell-based; conditions: Staphylococcus aureus; test strain 2, S. aureus^MS; read-out: MIC
Method: as §1, §2

[8] = tested on: C. difficile 181; assay: MIC by agar dilution against Clostridioides difficile, test strain 19; type: cell-based; conditions: test strain 19, C. difficile 181, anaerobic, agar dilution, read-out: MIC
[9] = tested on: S. aureus^VR; assay: MIC by broth microdilution (aerobic pathogens), test strain 4; type: cell-based, Vancomycin resistant Staphylococcus aureus; conditions: Staphylococcus aureus; test strain 4, S. aureus^VR (vancomycin resistant); read-out: MIC
Method: as §1, §2

[10] = tested on: S. epidermis; assay: MIC by broth microdilution (aerobic pathogens), test strain 5; type: cell-based; conditions: Staphylococcus epidermidis; test strain 5, S. epidermis; read-out: MIC
Method: as §1, §2

[11] = tested on: C. difficile 174; assay: MIC by agar dilution against Clostridioides difficile, test strain 18; type: cell-based; conditions: test strain 18, C. difficile 174, anaerobic, agar dilution, read-out: MIC
[12] = tested on: C. difficile 152; assay: MIC by agar dilution against Clostridioides difficile, test strain 14; type: cell-based; conditions: test strain 14, C. difficile 152, anaerobic, agar dilution, read-out: MIC
[13] = tested on: E. faecalis^LinR; assay: MIC by broth microdilution (aerobic pathogens), test strain 9; type: cell-based, Linezolid resistant Enterococcus faecalis; conditions: Enterococcus faecalis; test strain 9, E. faecalis^LinR (linezolid resistant); read-out: MIC
Method: as §1, §2

[14] = tested on: C. difficile 173; assay: MIC by agar dilution against Clostridioides difficile, test strain 17; type: cell-based; conditions: test strain 17, C. difficile 173, anaerobic, agar dilution, read-out: MIC
[15] = tested on: E. faecalis^VanA; assay: MIC by broth microdilution (aerobic pathogens), test strain 8; type: cell-based, Vancomycin resistant Enterococcus faecalis; conditions: Enterococcus faecalis; test strain 8, E. faecalis^VanA (vancomycin resistant); read-out: MIC
Method: as §1, §2

[16] = tested on: E. faecium; assay: MIC by broth microdilution (aerobic pathogens), test strain 10; type: cell-based; conditions: Enterococcus faecium; test strain 10, E. faecium; read-out: MIC
Method: as §1, §2

[17] = tested on: C. difficile 161; assay: MIC by agar dilution against Clostridioides difficile, test strain 16; type: cell-based; conditions: test strain 16, C. difficile 161, anaerobic, agar dilution, read-out: MIC
[18] = tested on: C. difficile 159; assay: MIC by agar dilution against Clostridioides difficile, test strain 15; type: cell-based; conditions: test strain 15, C. difficile 159, anaerobic, agar dilution, read-out: MIC
[19] = tested on: S. aureus^MR; assay: MIC by broth microdilution (aerobic pathogens), test strain 3; type: cell-based, Methicillin resistant Staphylococcus aureus; conditions: Staphylococcus aureus; test strain 3, S. aureus^MR (methicillin resistant); read-out: MIC
Method: as §1, §2

| MIC [1] [µg/mL] | MIC [2] [µg/mL] | MIC [3] [µg/mL] | MIC [4] [µg/mL] | MIC [5] [µg/mL] | MIC [6] [µg/mL] | MIC [7] [µg/mL] | MIC [8] [µg/mL] | MIC [9] [µg/mL] | MIC [10] [µg/mL] | MIC [11] [µg/mL] | MIC [12] [µg/mL] | MIC [13] [µg/mL] | MIC [14] [µg/mL] | MIC [15] [µg/mL] | MIC [16] [µg/mL] | MIC [17] [µg/mL] | MIC [18] [µg/mL] | MIC [19] [µg/mL] | Structure (SMILES) |
| --- | --- | --- | --- | --- | --- | --- | --- | --- | --- | --- | --- | --- | --- | --- | --- | --- | --- | --- | --- |
| – | 1 (≈ 0.815 µM) | – | 1 (≈ 0.815 µM) | 1 (≈ 0.815 µM) | 1 (≈ 0.815 µM) | 1 (≈ 0.815 µM) | – | 1 (≈ 0.815 µM) | 1 (≈ 0.815 µM) | – | – | – | – | 1 (≈ 0.815 µM) | 0.5 (≈ 0.408 µM) | – | – | – | C/C=C1\NC(=O)[C@H]([C@@H](C)O)NC(=O)c2csc(n2)-c2ccc(-c3nc(-c4nc(C(=O)NC5(C(=O)NCCn6cnc([N+](=O)[O-])n6)CC5)cs4)cs3)nc2-c2csc(n2)[C@H]([C@@H](C)O)NC(=O)c2csc(n2)[C@H](C(C)C)NC(=O)c2csc1n2 [Compound 38] |
| – | – | 0.25 (≈ 0.204 µM) | – | – | – | – | 0.5 (≈ 0.408 µM) | – | – | 1 (≈ 0.816 µM) | 0.25 (≈ 0.204 µM) | – | 0.5 (≈ 0.408 µM) | – | – | 0.25 (≈ 0.204 µM) | 1 (≈ 0.816 µM) | – | C/C=C1\NC(=O)[C@H]([C@@H](C)O)NC(=O)c2csc(n2)-c2ccc(-c3nc(-c4nc(C(=O)NC5(C(=O)NCCn6ccnc6[N+](=O)[O-])CC5)cs4)cs3)nc2-c2csc(n2)[C@H]([C@@H](C)O)NC(=O)c2csc(n2)[C@H](C(C)C)NC(=O)c2csc1n2 [Compound 39] |
| 0.25 (≈ 0.202 µM) | 0.5 (≈ 0.403 µM) | 1 (≈ 0.807 µM) | 0.5 (≈ 0.403 µM) | – | – | 0.5 (≈ 0.403 µM) | 0.125 (≈ 0.101 µM) | – | 0.125 (≈ 0.101 µM) | 0.125 (≈ 0.101 µM) | 0.25 (≈ 0.202 µM) | 0.5 (≈ 0.403 µM) | 0.125 (≈ 0.101 µM) | 1 (≈ 0.807 µM) | 1 (≈ 0.807 µM) | 0.5 (≈ 0.403 µM) | 0.5 (≈ 0.403 µM) | – | C/C=C1\NC(=O)[C@H]([C@@H](C)O)NC(=O)c2csc(n2)-c2ccc(-c3nc(-c4nc(C(=O)NC5(C(=O)NCCn6c([N+](=O)[O-])cnc6C)CC5)cs4)cs3)nc2-c2csc(n2)[C@H]([C@@H](C)O)NC(=O)c2csc(n2)[C@H](C(C)C)NC(=O)c2csc1n2 [Compound 11] |

The next lines start with the compound.

| Structure (SMILES) | MIC [1] [µg/mL] | MIC [2] [µg/mL] | MIC [3] [µg/mL] | MIC [4] [µg/mL] | MIC [5] [µg/mL] | MIC [6] [µg/mL] | MIC [7] [µg/mL] | MIC [8] [µg/mL] | MIC [9] [µg/mL] | MIC [10] [µg/mL] | MIC [11] [µg/mL] | MIC [12] [µg/mL] | MIC [13] [µg/mL] | MIC [14] [µg/mL] | MIC [15] [µg/mL] | MIC [16] [µg/mL] | MIC [17] [µg/mL] | MIC [18] [µg/mL] | MIC [19] [µg/mL] |
| --- | --- | --- | --- | --- | --- | --- | --- | --- | --- | --- | --- | --- | --- | --- | --- | --- | --- | --- | --- |
| C/C=C1\NC(=O)[C@H]([C@@H](C)O)NC(=O)c2csc(n2)-c2ccc(-c3nc(-c4nc(C(=O)NC5(C(=O)NCC6OB(O)c7ccccc76)CC5)cs4)cs3)nc2-c2csc(n2)[C@H]([C@@H](C)O)NC(=O)c2csc(n2)[C@H](C(C)C)NC(=O)c2csc1n2 (stereo partly drawn) [Compound 6] | 0.125 (≈ 0.101 µM) | 0.5 (≈ 0.406 µM) | 1 (≈ 0.812 µM) | 1 (≈ 0.812 µM) | 1 (≈ 0.812 µM) | 0.5 (≈ 0.406 µM) | 0.25 (≈ 0.203 µM) | 0.06 (≈ 0.0487 µM) | 1 (≈ 0.812 µM) | 0.5 (≈ 0.406 µM) | 0.06 (≈ 0.0487 µM) | 0.06 (≈ 0.0487 µM) | 0.125 (≈ 0.101 µM) | 0.06 (≈ 0.0487 µM) | 1 (≈ 0.812 µM) | 0.25 (≈ 0.203 µM) | – | – | – |
| C/C=C(\NC(=O)c1csc(-c2csc(-c3ccc4c(n3)-c3csc(n3)[C@H]([C@@H](C)O)NC(=O)c3csc(n3)[C@H](C(C)C)NC(=O)c3csc(n3)/C(=C/C)NC(=O)[C@H]([C@@H](C)O)NC(=O)c3csc-4n3)n2)n1)C(=O)NCCn1cc([N+](=O)[O-])nc1C [Compound 41] | – | – | 0.5 (≈ 0.403 µM) | – | – | – | – | 1 (≈ 0.807 µM) | – | – | 0.25 (≈ 0.202 µM) | 0.25 (≈ 0.202 µM) | – | 0.5 (≈ 0.403 µM) | – | – | 0.25 (≈ 0.202 µM) | 0.5 (≈ 0.403 µM) | – |
| C/C=C(\NC(=O)c1csc(-c2csc(-c3ccc4c(n3)-c3csc(n3)[C@H]([C@@H](C)O)NC(=O)c3csc(n3)[C@H](C(C)C)NC(=O)c3csc(n3)/C(=C/C)NC(=O)[C@H]([C@@H](C)O)NC(=O)c3csc-4n3)n2)n1)C(=O)NCCN1CCN(C)CC1 [Compound 46] | 0.5 (≈ 0.412 µM) | 0.5 (≈ 0.412 µM) | – | 0.25 (≈ 0.206 µM) | 0.5 (≈ 0.412 µM) | 0.5 (≈ 0.412 µM) | 0.5 (≈ 0.412 µM) | – | 0.5 (≈ 0.412 µM) | 0.25 (≈ 0.206 µM) | – | – | 0.25 (≈ 0.206 µM) | – | 0.5 (≈ 0.412 µM) | 0.25 (≈ 0.206 µM) | – | – | 1 (≈ 0.825 µM) |
